Laboratory results reported in patent publication US8841291B2, “Selective hydroxamic acid based MMP-12 and MMP-13 inhibitors” (Novartis AG, priority 2008, dated 2014).
pIC50: −log10 of the molar value.

Key:
[1] = target: T1, Gelatinase (MMP-2) (Homo sapiens, UniProt P08253); test: Gelatinase (MMP-2) inhibitory activity, fluorogenic peptide substrate assay; type: biochemical; details: substrate 5 μM, 60 min preincubation, 20-25° C.; read-out: MMP2 IC50
T1 sequence (P08253 110-660): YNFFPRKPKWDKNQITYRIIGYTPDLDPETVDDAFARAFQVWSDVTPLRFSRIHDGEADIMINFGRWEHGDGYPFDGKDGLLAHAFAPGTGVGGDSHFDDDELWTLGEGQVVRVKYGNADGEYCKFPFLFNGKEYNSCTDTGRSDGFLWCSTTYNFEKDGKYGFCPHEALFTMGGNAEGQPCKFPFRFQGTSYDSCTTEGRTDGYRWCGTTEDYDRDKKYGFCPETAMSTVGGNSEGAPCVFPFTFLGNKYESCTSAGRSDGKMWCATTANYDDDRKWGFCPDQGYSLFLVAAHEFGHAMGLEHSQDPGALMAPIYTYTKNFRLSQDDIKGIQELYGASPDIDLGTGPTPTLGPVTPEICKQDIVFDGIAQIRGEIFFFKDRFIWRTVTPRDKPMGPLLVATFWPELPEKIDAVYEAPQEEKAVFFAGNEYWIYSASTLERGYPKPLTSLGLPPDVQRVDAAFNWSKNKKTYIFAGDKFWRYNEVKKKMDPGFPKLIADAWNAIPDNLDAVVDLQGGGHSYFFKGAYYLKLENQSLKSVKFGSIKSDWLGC
Protocol: (§1) Stock solutions of inhibitors (0.03 mM-3 mM) are also prepared in DMSO. The inhibitors are diluted into the assay solutions, and the controls use an equal volume of DMSO so that the final DMSO concentration from the inhibitor and substrate dilutions in all assays is 1.0%. Assays are performed in an assay buffer (100 mM sodium chloride, 10 μM ZnCl. Sub 2, 10 mM CaCl2, 100 mM Tris-Cl pH7.5, 0.05% Brij-35), containing 1.0% DMSO from the substrate and inhibitor additions. The substrate concentration used in the assays is 5 μM. The assays are carried out at 20-25° C. […] The reaction mixtures are added in duplicate into appropriate wells of a 384-well assay plate. The reaction mixtures are preincubated with the inhibitors for 60 minutes The reactions are started by the addition of MMP substrate, and the fluorescence intensity changes are measured after 60 minutes The apparent enzyme activity in the presence of an inhibitor is then compared with that in the absence of any inhibitor to determine the inhibition effect of the inhibitor.

[2] = target: Collagenase-3 (MMP-13) (Homo sapiens, UniProt P45452); test: Collagenase-3 (MMP-13) inhibitory activity, fluorogenic peptide substrate assay; type: biochemical; details: recombinant pro-collagenase-3 activated with 1 mM APMA; read-out: MMP13 IC50
Protocol: as §1
Collagenase-3 (MMP-13) inhibitory activity is determined as described above. Recombinant pro-collagenase-3 is activated with 1 mM APMA, and stored in the assay buffer after extensive dialysis in the assay buffer.

| pIC50 [1] | pIC50 [2] | Compound |
| --- | --- | --- |
| 6.46 | 6.53 | O=C(NO)[C@H]1CCCN1S(=O)(=O)c1ccc2ccccc2c1 (stereo in doubt) [Example 52, 1-(Naphthalene-2-sulfonyl)-pyrrolidine-2-carboxylic acid hydroxyamide] |
| 7.29 | 9.15 | C=CCCN([C@H](CC=C)C(=O)NO)S(=O)(=O)c1ccc2ccccc2c1 [Example 4, (R)-2-[But-3-enyl-(naphthalene-2-sulfonyl)-amino]-pent-4-enoic acid hydroxyamide] |
| 6.90 | 8.46 | C#CC[C@H](C(=O)NO)N(CC=C)S(=O)(=O)c1ccc2ccccc2c1 [Example 8, (R)-2-[Allyl-(naphthalene-2-sulfonyl)-amino]-pent-4-ynoic acid hydroxyamide] |
| 7.31 | 8.31 | O=C(NO)[C@H]1CCCCN1S(=O)(=O)c1ccc2ccccc2c1 [Example 9, (R)-1-(Naphthalene-2-sulfonyl)-piperidine-2-carboxylic acid hydroxyamide] |
| 7.03 | 7.29 | O=C(NO)C(NS(=O)(=O)c1ccc2ccccc2c1)C1CCOCC1 (centres unmarked) [Example 11, N-Hydroxy-2-(naphthalene-2-sulfonylamino)-2-(tetrahydro-pyran-4-yl)-acetamide] |
| 6.80 | 6.82 | CS(=O)(=O)CCC(NS(=O)(=O)c1ccc2ccccc2c1)C(=O)NO (centres unmarked) [Example 18, N-Hydroxy-4-methanesulfonyl-2-(naphthalene-2-sulfonylamino)-butyramide] |
| 7.04 | 8.47 | C=CCN([C@@H](C(=O)NO)C(C)C)S(=O)(=O)c1ccc2ccccc2c1 [Example 24, (R)-2-[Allyl-(naphthalene-2-sulfonyl)-amino]-N-hydroxy-3-methyl-butyramide] |
| 5.36 | 6.27 | CCOc1ccc2ccc(S(=O)(=O)N(Cc3ccccc3)[C@@H](C(=O)NO)C(C)C)cc2c1 [Example 27, 2-[Benzyl-(7-ethoxy-naphthalene-2-sulfonyl)-amino]-N-hydroxy-3-methyl-butyramide] |
| 7.21 | 8.68 | CC(C)[C@H](C(=O)NO)N(CCOc1ccccc1)S(=O)(=O)c1ccc2ccccc2c1 [Example 30, N-(2-phenoxyethyl)-N-(naphthalene-2-sulfonyl)-D-valine hydroxamic acid] |
| 7.52 | 8.74 | C=CC1=CCN(S(=O)(=O)c2ccc3ccccc3c2)[C@@H](C(=O)NO)C1 [Example 44, (R)-1-(Naphthalene-2-sulfonyl)-4-vinyl-1,2,3,6-tetrahydro-pyridine-2-carboxylic acid hydroxyamide] |
| 6.01 | 6.88 | O=C(NO)[C@H]1CCCCN1S(=O)(=O)c1cnc2ccccc2c1 [Example 50, (R)-1-(Quinoline-3-sulfonyl)-piperidine-2-carboxylic acid hydroxyamide] |
| – | 6.49 | O=C(NO)[C@H]1CC=CCN1S(=O)(=O)c1ccc(N2CCOCC2)nc1 [Example 96, (R)-1-(6-Morpholin-4-yl-pyridine-3-sulfonyl)-1,2,3,6-tetrahydro-pyridine-2-carboxylic acid hydroxyamide] |

Continued, compound first:

| Compound | pIC50 [1] | pIC50 [2] |
| --- | --- | --- |
| CC(C)CCN([C@@H](C(=O)NO)C(C)C)S(=O)(=O)c1ccc2ccccc2c1O [Example 1, (R)—N-Hydroxy-2-[(1-hydroxy-naphthalene-2-sulfonyl)-(3-methyl-butyl)-amino]-3-methyl-butyramide] | < 5.52 | 6.17 |
| C=CC[C@@H](NS(=O)(=O)c1ccc2ccccc2c1)C(=O)NO [Example 3, (R)-2-(Naphthalene-2-sulfonylamino)-pent-4-enoic acid hydroxyamide] | 7.65 | 7.45 |
| CC(C)C[C@@H](NS(=O)(=O)c1ccc2ccccc2c1)C(=O)NO [Example 5, 4-Methyl-2-(naphthalene-2-sulfonylamino)-pentanoic acid hydroxyamide] | 7.24 | 7.39 |
| CC(C)(NS(=O)(=O)c1ccc2ccccc2c1)C(=O)NO [Example 12, N-Hydroxy-2-methyl-2-(naphthalene-2-sulfonylamino)-propionamide] | 6.10 | 6.12 |
| O=C(NO)C1(NS(=O)(=O)c2ccc3ccccc3c2)CCCCC1 [Example 19, 1-(Naphthalene-2-sulfonylamino)-cyclohexanecarboxylic acid hydroxyamide] | 6.35 | 6.14 |
| CSCC[C@H](C(=O)NO)N(CCC(C)C)S(=O)(=O)c1ccc2ccccc2c1 [Example 20, (R)—N-Hydroxy-2-[(3-methyl-butyl)-(naphthalene-2-sulfonyl)-amino]-4-methylsulfanyl-butyramide] | 7.92 | 9.52 |
| CC(C)CCN([C@H](Cc1ccc(OCc2ccccc2)cc1)C(=O)NO)S(=O)(=O)c1ccc2ccccc2c1 [Example 25, (R)-3-(4-Benzyloxy-phenyl)-N-hydroxy-2-[(3-methyl-butyl)-(naphthalene-2-sulfonyl)-amino]-propionamide] | 5.71 | 7.36 |
| O=C(NO)[C@H]1CC=CCN1S(=O)(=O)c1ccc2ccccc2c1 [Example 26, (R)-1-(Naphthalene-2-sulfonyl)-1,2,3,6-tetrahydro-pyridine-2-carboxylic acid hydroxyamide] | 7.73 | 8.77 |
| CC(C)[C@H](C(=O)NO)N(CCCc1ccccc1)S(=O)(=O)c1ccc2cc(N)ccc2c1 [Example 32, 2-[(6-Amino-naphthalene-2-sulfonyl)-(3-phenyl-propyl)-amino]-N-hydroxy-3-methyl-butyramide] | 7.09 | 9.00 |
| O=C(NO)[C@H]1CCCCCN1S(=O)(=O)c1ccc2ccccc2c1 [Example 33, (R)-1-(Naphthalene-2-sulfonyl)-azepane-2-carboxylic acid hydroxyamide] | 7.13 | 8.06 |
| CC(=O)Nc1ccc2cc(S(=O)(=O)N(CCCc3ccccc3)[C@@H](C(=O)NO)C(C)C)ccc2c1 [Example 34, 2-[(6-Acetylamino-naphthalene-2-sulfonyl)-(3-phenyl-propyl)-amino]-N-hydroxy-3-methyl-butyramide] | 5.54 | 5.88 |
| CC(C)[C@H](C(=O)NO)N(CCCc1ccccc1)S(=O)(=O)c1ccc2ccc(N)cc2c1 [Example 38, 2-[(7-Amino-naphthalene-2-sulfonyl)-(3-phenyl-propyl)-amino]-N-hydroxy-3-methyl-butyramide] | < 6.52 | 6.72 |
| O=C(NO)[C@H]1CC=C(c2ccccc2)CN1S(=O)(=O)c1ccc2ccccc2c1 [Example 39, (R)-1-(Naphthalene-2-sulfonyl)-5-phenyl-1,2,3,6-tetrahydro-pyridine-2-carboxylic acid hydroxyamide] | 7.56 | 8.85 |
| CC(C)[C@H](C(=O)NO)N(CCOc1ccc(F)cc1)S(=O)(=O)c1ccc2ccccc2c1 [Example 41, N-(2-(4-fluorophenoxy)ethyl)-N-(naphthalene-2-sulfonyl)-D-valine hydroxamic acid] | 5.95 | 7.41 |
| Cc1ccc(Nc2ccc3cc(S(=O)(=O)N(Cc4ccccc4)[C@@H](C(=O)NO)C(C)C)ccc3c2)cc1 [Example 43, 2-[Benzyl-(6-p-tolylamino-naphthalene-2-sulfonyl)-amino]-N-hydroxy-3-methyl-butyramide] | < 6.52 | 6.93 |
| COc1cccc(OCCN([C@@H](C(=O)NO)C(C)C)S(=O)(=O)c2ccc3ccccc3c2)c1 [Example 46, (R)—N-Hydroxy-2-[[2-(3-methoxy-phenoxy)-ethyl]-(naphthalene-2-sulfonyl)-amino]-3-methyl-butyramide] | 6.18 | 7.86 |
| CC(C)CCN([C@@H](C(=O)NO)C(C)C)S(=O)(=O)c1ccc2cc(N)ccc2c1 [Example 51, 2-[(6-Amino-naphthalene-2-sulfonyl)-(3-methyl-butyl)-amino]-N-hydroxy-3-methyl-butyramide] | 5.95 | 7.05 |
| CC(=O)Nc1ccc2cc(S(=O)(=O)N(CCC(C)C)[C@@H](C(=O)NO)C(C)C)ccc2c1 [Example 55, 2-[(6-Acetylamino-naphthalene-2-sulfonyl)-(3-methyl-butyl)-amino]-N-hydroxy-3-methyl-butyramide] | 7.09 | 8.51 |
| CN1CCOc2cc(S(=O)(=O)N3CC=CC[C@@H]3C(=O)NO)ccc21 [Example 94, (R)-1-(4-Methyl-3,4-dihydro-2H-benzo[1,4]oxazine-7-sulfonyl)-1,2,3,6-tetrahydro-pyridine-2-carboxylic acid hydroxyamide] | – | 7.43 |
| COc1ccc(S(=O)(=O)N2CC=CC[C@@H]2C(=O)NO)cc1OC [Example 97, (R)-1-(3,4-Dimethoxy-benzenesulfonyl)-1,2,3,6-tetrahydro-pyridine-2-carboxylic acid hydroxyamide] | – | 4.99 |
| (R)-1-(2,3,4a,8a-Tetrahydro-benzo[1,4]dioxine-6-sulfonyl)-1,2,3,6-tetrahydro-pyridine-2-carboxylic acid hydroxyamide [Example 95] | – | 8.59 |
